Values after ≈ are worked out from the molar mass of the structure shown. Where two headings read alike, the source gives them in different places.

What all share (assay): MIC determination in BHI broth microdilution
Format in all cases: cell-based
(Dilution methods test growth across graded concentrations, often in twofold steps.)

The test system of one assay is E. coli BAS 849. The conditions noted are these: E. coli BAS849; BHI with 0.1% casamino acids, 18 hours at 37° C., OD600 ≧90% inhibition. On the procedure:
(§1) In the Table below, MIC (minimum inhibitory concentration) values of certain compounds of the present invention are provided for the bacterial strains E. faecalis ATCC 29212; E. faecalis CL4877; E. faecium ATCC 49624; E. faecium CL4931; S. aures ATCC 29213; S. aureus ATCC 33591; and E. coli BAS 849. The MICs of the test compounds were determined using bacteria grown in brain heart infusion media (BHI) supplemented with 0.1% casamino acids. Logarithmically growing cells were diluted to approximately 5×10^5 CFU/ml and subjected to test compounds solubilized and serially diluted with DMSO. A 5% final DMSO concentration had no effect on cell viability or killing. After 18 hours at 37° C., the OD600 was determined by reading the ninety-six well microtiter plates on a microplate reader. For a given concentration, an MIC determination was made if: […]

In the next assay the test system is S. aureus ATCC 33591. On the procedure: as §1
The next assay deals with E. faecalis ATCC 29212. As to the method: (§2) The MICs of the test compounds were determined using bacteria grown in brain heart infusion media (BHI) supplemented with 0.1% casamino acids. Logarithmically growing cells were diluted to approximately 5×10^5 CFU/ml and subjected to test compounds solubilized and serially diluted with DMSO. […] After 18 hours at 37° C., the OD600 was determined by reading the ninety-six well microtiter plates on a microplate reader. For a given concentration, an MIC determination was made if: […]

The test system of a further assay is E. faecium CL4931. On the procedure:
as §2

Another assay relates to E. faecium ATCC 49624. As to the method:
as §2

The next assay relates to S. aureus ATCC29213. On the procedure:
as §2

In another assay the test system is E. faecalis CL4877. As to the method:
as §2

Where [1] appears, read: S. aureus ATCC33591, BHI with 0.1% casamino acids, 18 hours at 37° C., OD600 ≧90% inhibition.
[2] abbreviates: E. faecalis ATCC29212, BHI with 0.1% casamino acids, 18 hours at 37° C., OD600 ≧90% inhibition.
Where [3] appears, read: E. faecium CL4931, BHI with 0.1% casamino acids, 18 hours at 37° C., OD600 ≧90% inhibition.
The mark [4] stands for this setting: E. faecium ATCC49624, BHI with 0.1% casamino acids, 18 hours at 37° C., OD600 ≧90% inhibition.
Where [5] appears, read: S. aureus ATCC29213, BHI with 0.1% casamino acids, 18 hours at 37° C., OD600 ≧90% inhibition.
The mark [6] stands for this setting: E. faecalis CL4877, BHI with 0.1% casamino acids, 18 hours at 37° C., OD600 ≧90% inhibition.
Setting [7] is: Staphylococcus aureus, ATCC33591, 18 h.
[8] abbreviates: Enterococcus faecalis, ATCC29212, 18 h, read-out: MIC.
The mark [9] stands for this setting: Enterococcus faecium, CL4931, 18 h, read-out: MIC.
Where [10] appears, read: Enterococcus faecium, ATCC49624, 18 h, read-out: MIC.
Where [11] appears, read: Staphylococcus aureus, ATCC29213, 18 h, read-out: MIC.
[12] abbreviates: Enterococcus faecalis, CL4877, 18 h, read-out: MIC.
[13] abbreviates: Enterococcus faecalis, ATCC29212, 18 h.
[14] abbreviates: Enterococcus faecium, CL4931, 18 h.
The mark [15] stands for this setting: Enterococcus faecium, ATCC49624, 18 h.
[16] abbreviates: Staphylococcus aureus, ATCC29213, 18 h.
The mark [17] stands for this setting: Enterococcus faecalis, CL4877, 18 h.

A word on the MIC: it is the least concentration at which growth counts as inhibited. Take “6′-amino-3,4- dichloro- benzyloxylben zyl- vancomycin putrescine amide [TS0216]”: the MIC in the assay with E. coli BAS 849 was 3.12 µg/mL; in the assay with S. aureus ATCC 33591 (setting [1]) it was 3.12 µg/mL; with E. faecalis ATCC 29212 (setting [2]), 1.56 µg/mL; in the assay with E. faecium CL4931 (setting [3]), 6.25 µg/mL; against E. faecium ATCC 49624 (setting [4]) it was 3.12 µg/mL; with S. aureus ATCC29213 (setting [5]), 3.12 µg/mL. Moreover, the minimal inhibitory concentration (MIC) against E. faecalis CL4877 (setting [6]) was determined as 3.12 µg/mL.

Take “6′-amino- chlorobiphenyl methyl- vancomycin putrescine amide [TS0217]”: the MIC in the assay with E. coli BAS 849 amounted to 3.12 µg/mL; against S. aureus ATCC 33591 (setting [1]), 3.12 µg/mL; with E. faecalis ATCC 29212 (setting [2]), 1.56 µg/mL; with E. faecium CL4931 (setting [3]), 12.5 µg/mL; in the assay on E. faecium ATCC 49624 (setting [4]), 1.56 µg/mL; against S. aureus ATCC29213 (setting [5]), 1.56 µg/mL. The MIC with E. faecalis CL4877 (setting [6]) worked out at 6.25 µg/mL.

With “6′-azido-3,4- dichloro- benzyloxyben zyl- vancomycin putrescine amide [TS0220]”, the minimal inhibitory concentration (MIC) in the assay with S. aureus ATCC 33591 (setting [1]) amounted to 3.1250 µg/mL; with E. faecalis ATCC 29212 (setting [2]), 1.5625 µg/mL; in the assay on E. faecium CL4931 (setting [3]), 3.1250 µg/mL; against E. faecium ATCC 49624 (setting [4]), 0.7813 µg/mL; with S. aureus ATCC29213 (setting [5]), 1.5625 µg/mL; against E. faecalis CL4877 (setting [6]) it was 1.5625 µg/mL.

Regarding `CN[C@H](CC(C)C)C(=O)N[C@H]1C(=O)N[C@@H](CC(N)=O)C(=O)N[C@H]2C(=O)N[C@H]3C(=O)N[C@H](C(=O)N[C@H](C(=O)O)c4cc(O)cc(O)c4-c4cc3ccc4O)[C@H](O)c3ccc(c(Cl)c3)Oc3cc2cc(c3O[C@@H]2O[C@H](CO)[C@@H](O)[C@H](O)[C@H]2O[C@H]2C[C@](C)(N)[C@H](O)[C@H](C)O2)Oc2ccc(cc2Cl)[C@H]1O` [EXT0002, vancomycin, reference compound], the MIC was 0.78 µg/mL (≈ 0.538 µM) with E. coli BAS 849; 0.78 to 3.12 µg/mL against S. aureus ATCC 33591 (setting [1]); 1.56 to 3.12 µg/mL against E. faecalis ATCC 29212 (setting [2]); > 25 µg/mL in the assay with E. faecium CL4931 (setting [3]); 0.25 to 0.39 µg/mL in the assay with E. faecium ATCC 49624 (setting [4]); 1.56 µg/mL (≈ 1.08 µM) against S. aureus ATCC29213 (setting [5]). The MIC against E. faecalis CL4877 (setting [6]) was > 25 µg/mL.

As for `CN[C@H](CC(C)C)C(=O)N[C@H]1C(=O)N[C@@H](CC(N)=O)C(=O)N[C@H]2C(=O)N[C@H]3C(=O)N[C@H](C(=O)N[C@@H](C(=O)NCCCCN)c4cc(O)cc(O)c4-c4cc3ccc4O)[C@H](O)c3ccc(c(Cl)c3)Oc3cc2cc(c3OC2OC(CO)C(O)C(O)C2OC2CC(C)(NCc3ccc(-c4ccc(Cl)cc4)cc3)C(O)C(C)O2)Oc2ccc(cc2Cl)[C@H]1O` (stereo partly drawn) [TS0221, chlorobipheny lmethyl- vancomycin putrescine amide], the minimal inhibitory concentration (MIC) against S. aureus ATCC 33591 (setting [7]) stood at 0.781 µg/mL (≈ 0.454 µM); in the assay on E. faecalis ATCC 29212 (setting [8]), 1.56 µg/mL (≈ 0.908 µM); in the assay with E. faecium CL4931 (setting [9]), 6.25 µg/mL (≈ 3.63 µM); in the assay with E. faecium ATCC 49624 (setting [10]), 0.25 µg/mL (≈ 0.145 µM); in the assay on S. aureus ATCC29213 (setting [11]), 1.56 µg/mL (≈ 0.908 µM); in the assay on E. faecalis CL4877 (setting [12]) it was 12.5 µg/mL (≈ 7.27 µM).

In the case of `CN[C@H](CC(C)C)C(=O)N[C@H]1C(=O)N[C@@H](CC(N)=O)C(=O)N[C@H]2C(=O)NC3C(=O)N[C@H](C(=O)N[C@@H](C(=O)NCCCCN)c4cc(O)cc(O)c4-c4cc3ccc4O)[C@H](O)c3ccc(c(Cl)c3)Oc3cc2cc(c3OC2OC(CN=[N+]=[N-])C(O)C(O)C2OC2CC(C)(NCc3ccc(-c4ccc(Cl)cc4)cc3)C(O)C(C)O2)Oc2ccc(cc2Cl)[C@H]1O` (stereo partly drawn) [TS0222], the MIC is 3.12 µg/mL (≈ 1.79 µM) with S. aureus ATCC 33591 (setting [7]); 0.781 µg/mL (≈ 0.448 µM) with E. faecalis ATCC 29212 (setting [8]); 3.12 µg/mL (≈ 1.79 µM) in the assay on E. faecium CL4931 (setting [9]); 0.25 µg/mL (≈ 0.143 µM) in the assay on E. faecium ATCC 49624 (setting [10]); 1.56 µg/mL (≈ 0.895 µM) in the assay on S. aureus ATCC29213 (setting [11]); 3.12 µg/mL (≈ 1.79 µM) in the assay with E. faecalis CL4877 (setting [12]).

Consider `CN[C@H](CC(C)C)C(=O)N[C@H]1C(=O)N[C@@H](CC(N)=O)C(=O)N[C@H]2C(=O)NC3C(=O)N[C@H](C(=O)N[C@@H](C(=O)NCCN)c4cc(O)cc(O)c4-c4cc3ccc4O)[C@H](O)c3ccc(c(Cl)c3)Oc3cc2cc(c3OC2OC(CN=[N+]=[N-])C(O)C(O)C2OC2CC(C)(NCc3ccc(OCc4ccc(Cl)c(Cl)c4)cc3)C(O)C(C)O2)Oc2ccc(cc2Cl)[C@H]1O` (stereo partly drawn) [TS0256, 6′-azido-3,4-dichlorobenzyl oxylbenzyl-vancomycin 2-aminoethyl amide], for which the MIC in the assay with S. aureus ATCC 33591 (setting [7]) was 1.56 µg/mL (≈ 0.876 µM); against E. faecalis ATCC 29212 (setting [13]) it was 3.12 µg/mL (≈ 1.75 µM); against E. faecium CL4931 (setting [14]), 6.25 µg/mL (≈ 3.51 µM); with E. faecium ATCC 49624 (setting [15]), 0.39 µg/mL (≈ 0.219 µM); in the assay on S. aureus ATCC29213 (setting [16]) it was 1.56 µg/mL (≈ 0.876 µM); with E. faecalis CL4877 (setting [17]) it was 1.56 µg/mL (≈ 0.876 µM).

In the case of `CN[C@H](CC(C)C)C(=O)N[C@H]1C(=O)N[C@@H](CC(N)=O)C(=O)N[C@H]2C(=O)NC3C(=O)N[C@H](C(=O)N[C@@H](C(=O)NCCN)c4cc(O)cc(O)c4-c4cc3ccc4O)[C@H](O)c3ccc(c(Cl)c3)Oc3cc2cc(c3OC2OC(CN)C(O)C(O)C2OC2CC(C)(NCc3ccc(OCc4ccc(Cl)c(Cl)c4)cc3)C(O)C(C)O2)Oc2ccc(cc2Cl)[C@H]1O` (stereo partly drawn) [TS0258, 6′-amino-3,4-dichlorobenzyl oxylbenzyl-vancomycin 2-aminoethyl amide], the MIC in the assay on S. aureus ATCC 33591 (setting [7]) is 12.5 µg/mL (≈ 7.12 µM); with E. faecalis ATCC 29212 (setting [13]) it was 12.5 µg/mL (≈ 7.12 µM); in the assay on E. faecium CL4931 (setting [14]), 25 µg/mL (≈ 14.2 µM); against E. faecium ATCC 49624 (setting [15]), 3.12 µg/mL (≈ 1.78 µM); with S. aureus ATCC29213 (setting [16]), 25 µg/mL (≈ 14.2 µM); in the assay on E. faecalis CL4877 (setting [17]) it was 25 µg/mL (≈ 14.2 µM).

Consider “N-methyl, N- chlorobiphenyl methyl-D- leucyl-6′-azido- chlorobiphenyl methyl vancomycin putrescine amide [TS0259]”, for which the MIC in the assay on S. aureus ATCC 33591 (setting [1]) is 1.56 µg/mL; against E. faecalis ATCC 29212 (setting [2]), 3.12 µg/mL; against E. faecium CL4931 (setting [3]) it was 6.25 µg/mL; against E. faecium ATCC 49624 (setting [4]), 1.56 µg/mL; with S. aureus ATCC29213 (setting [5]), 3.12 µg/mL; against E. faecalis CL4877 (setting [6]), 12.5 µg/mL.
